Tests used:
[1] = Volume of distribution at steady state in nude mouse; assay type: ADME, organism-based; details: in vivo, read-out: Vdss
[2] = target: T1, Serine/threonine-protein kinase Chk1 (Homo sapiens, UniProt O14757); assay: Inhibition of human recombinant CHK1 expressed in insect cells using biotinylaminohexanoyl-KKVSRSGLYRSPMPENLNRPR as substrate after 2 hrs by scintillation proximity assay
T1 sequence (O14757 whole entry): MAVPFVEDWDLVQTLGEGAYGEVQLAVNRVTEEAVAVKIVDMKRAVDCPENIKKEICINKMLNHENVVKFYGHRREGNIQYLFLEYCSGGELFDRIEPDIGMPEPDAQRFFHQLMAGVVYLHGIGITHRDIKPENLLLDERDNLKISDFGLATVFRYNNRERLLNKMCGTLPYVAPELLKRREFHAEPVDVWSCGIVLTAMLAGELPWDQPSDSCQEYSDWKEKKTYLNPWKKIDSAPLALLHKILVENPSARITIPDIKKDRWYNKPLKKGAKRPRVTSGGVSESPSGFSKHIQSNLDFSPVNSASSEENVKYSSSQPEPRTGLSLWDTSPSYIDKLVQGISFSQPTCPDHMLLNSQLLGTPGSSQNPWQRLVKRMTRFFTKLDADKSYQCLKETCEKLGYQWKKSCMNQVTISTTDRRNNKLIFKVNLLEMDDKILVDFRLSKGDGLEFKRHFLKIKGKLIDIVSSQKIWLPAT

[3] = Clearance in nude mouse; assay type: ADME, organism-based; details: in vivo
[4] = Half life in nude mouse; assay type: ADME, organism-based; details: in vivo
[5] = AUC in nude mouse; assay type: ADME, organism-based; design: concentration or dose not given beside the values; details: plasma
[6] = Lipophilicity, log D of the compound; assay type: physicochemical; details: octanol/water
[7] = Fraction unbound in human plasma; assay type: ADME, cell-free
CYP450 = CYP450 (Homo sapiens, UniProt P04798+P05177+P05181+P08684+P10632+P10635+P11509+P11712+P13584+P20813+P20815+P20853+P24462+P24903+P33260+P33261+P51589+P78329+P98187+Q02928+Q08477+Q16678+Q16696+Q5TCH4+Q6VVX0+Q7Z449+Q8TAV3+Q96SQ9+Q9HB55); assay: Inhibition of CYP450; assay type: ADME
[8] = Half life in dog; assay type: ADME, organism-based, Canis lupus familiaris; details: in vivo
[9] = Clearance in dog; assay type: ADME, organism-based, Canis lupus familiaris; details: in vivo
[10] = target: Serine/threonine-protein kinase Chk2 (Homo sapiens, UniProt O96017); assay: Inhibition of CHK2
[11] = Clearance in rat; assay type: ADME, organism-based; details: in vivo
[12] = Half life in rat; assay type: ADME, organism-based; details: in vivo
[13] = Thermodynamic solubility of the compound in 0.1 M phosphate buffer at pH 7.4; assay type: physicochemical; details: read-out: Therm_solubility

Chain of Serine/threonine-protein kinase Chk2 (O96017 whole entry): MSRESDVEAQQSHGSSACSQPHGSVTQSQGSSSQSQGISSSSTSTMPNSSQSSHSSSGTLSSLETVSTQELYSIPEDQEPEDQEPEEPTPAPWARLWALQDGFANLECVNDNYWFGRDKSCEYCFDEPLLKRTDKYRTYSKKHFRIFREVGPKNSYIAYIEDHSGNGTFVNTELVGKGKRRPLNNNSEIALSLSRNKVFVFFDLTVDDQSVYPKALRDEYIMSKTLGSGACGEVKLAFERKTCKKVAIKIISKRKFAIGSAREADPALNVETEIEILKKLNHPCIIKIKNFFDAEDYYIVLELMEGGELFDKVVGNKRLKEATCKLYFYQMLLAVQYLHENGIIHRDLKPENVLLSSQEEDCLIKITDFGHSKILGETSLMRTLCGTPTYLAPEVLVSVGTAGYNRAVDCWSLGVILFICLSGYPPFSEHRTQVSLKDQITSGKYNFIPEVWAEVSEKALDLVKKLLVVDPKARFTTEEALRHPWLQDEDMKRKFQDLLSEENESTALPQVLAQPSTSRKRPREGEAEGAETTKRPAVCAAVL

SMILES | Vd [1] [L/kg] | IC50 [2] [nM] | clearance [3] [mL/min/kg] | half-life [4] [h] | AUC [5] [µM·h] | further results
Cl.NC(=O)Nc1cc(-c2ccc(F)cc2)sc1C(=O)N[C@H]1CCCNC1 | 8.5 | 6 | 86 | 1.2 | 1.46 | –
NC(=O)Nc1cc(-c2cc(F)cc(F)c2)sc1C(=O)N[C@H]1CCCNC1 | – | 10 | – | – | – | –
NC(=O)Nc1cc(-c2ccc(Cl)c(Cl)c2)sc1C(=O)N[C@H]1CCCNC1 | – | 40 | – | – | – | –
Cl.NC(=O)Nc1sc(-c2cccc(F)c2)cc1C(=O)N[C@H]1CCCNC1 | 2.8 | – | 33 | 1 | 3.8 | –
NC(=O)Nc1cc(-c2ccccc2)sc1C(=O)N[C@H]1CCCNC1 | – | 10 | – | – | – | logD [6]: 1.04; fraction unbound [7]: 0.32
N#Cc1ccc(-c2cc(NC(N)=O)c(C(=O)N[C@H]3CCCNC3)s2)cc1 | – | 6 | – | – | – | –
NC(=O)Nc1cc(-c2cccc(F)c2)sc1C(=O)N[C@H]1CCCNC1 [AZD-7762] | 3.9 | – | 50 | 1.1 | 2.5 | IC50 (CYP450): > 10000 nM; half-life [8]: 1.5 h; logD [6]: 1.2; clearance [9]: 35.7 mL/min/kg; IC50 [10]: < 10 nM; fraction unbound [7]: 0.26; clearance [11]: 12.8 mL/min/kg; half-life [12]: 5.2 h; solubility thermodynamic [13]: > 1000 µM
N#Cc1cccc(-c2cc(NC(N)=O)c(C(=O)N[C@H]3CCCNC3)s2)c1 | – | 7 | – | – | – | –
N#Cc1cccc(-c2cc(C(=O)N[C@H]3CCCNC3)c(NC(N)=O)s2)c1 | – | 9 | – | – | – | –
NC(=O)Nc1sc(-c2ccc(F)cc2F)cc1C(=O)N[C@H]1CCCNC1 | – | 13 | – | – | – | –
NC(=O)Nc1sc(-c2ccc(Cl)c(Cl)c2)cc1C(=O)N[C@H]1CCCNC1 | – | 30 | – | – | – | –
NC(=O)Nc1sc(-c2cc(F)cc(F)c2)cc1C(=O)N[C@H]1CCCNC1 | – | 12 | – | – | – | –
NC(=O)Nc1cc(-c2ccc(F)cc2F)sc1C(=O)N[C@H]1CCCNC1 | – | 30 | – | – | – | –
NC(=O)Nc1cc(-c2cccc(Cl)c2)sc1C(=O)N[C@H]1CCCNC1 | – | 8 | – | – | – | –
NC(=O)Nc1sc(-c2ccccc2)cc1C(=O)N[C@H]1CCCNC1 | – | – | – | – | – | fraction unbound [7]: 0.077
Cl.NC(=O)Nc1cc(-c2cccc(F)c2F)sc1C(=O)N[C@H]1CCCNC1 | 7.7 | 20 | 85 | 1.4 | 1.4 | –
NC(=O)Nc1cc(-c2ccccc2F)sc1C(=O)N[C@H]1CCCNC1 | – | 20 | – | – | – | –
Cl.NC(=O)Nc1sc(-c2ccc(F)cc2)cc1C(=O)N[C@H]1CCCNC1 | 6.1 | – | 81 | 1.2 | 1.5 | –
Cl.NC(=O)Nc1sc(-c2cccc(F)c2F)cc1C(=O)N[C@H]1CCCNC1 | 4.5 | 11 | 71 | 1.2 | 1.7 | –

From ChEMBL document CHEMBL2069189, “Discovery of checkpoint kinase inhibitor (S)-5-(3-fluorophenyl)-N-(piperidin-3-yl)-3-ureidothiophene-2-carboxamide (AZD7762) by structure-based design and optimization of thiophenecarboxamide ureas” (J Med Chem, 2012)
